# Experimental data: ChEMBL document CHEMBL1157462, “Sodium late current blockers in ischemia reperfusion: is the bullet magic?” (J Med Chem, 2008)
# Activity calls are given as the source filed them. No cut-off for these calls is given here.
# Columns and labels:
# Cardiac atrium [1] = assay: tissue or blood; conditions: Rattus norvegicus, Wistar, 0.25 h, read-out: INH
# Description: (§1) Inhibition of veratridine-induced diastolic contracture in Wistar rat atrium assessed as inhibition of systolic isometric tension of at 1 uM 15 mins
# [2] = molecular target: T1, Sodium channel protein type 5 subunit alpha (Homo sapiens, UniProt Q14524); assay: Inhibition of human sodium Nav1.5 channel expressed in HEK293 cells assessed as inhibition of veratridine-induced late sodium current elicited at -30 mV from holding potential of -110 mV at 10 uM by patch clamp technique; format: cell-based; conditions: for inhibition at 10 µM: HEK293, human
# T1 sequence (Q14524 whole entry): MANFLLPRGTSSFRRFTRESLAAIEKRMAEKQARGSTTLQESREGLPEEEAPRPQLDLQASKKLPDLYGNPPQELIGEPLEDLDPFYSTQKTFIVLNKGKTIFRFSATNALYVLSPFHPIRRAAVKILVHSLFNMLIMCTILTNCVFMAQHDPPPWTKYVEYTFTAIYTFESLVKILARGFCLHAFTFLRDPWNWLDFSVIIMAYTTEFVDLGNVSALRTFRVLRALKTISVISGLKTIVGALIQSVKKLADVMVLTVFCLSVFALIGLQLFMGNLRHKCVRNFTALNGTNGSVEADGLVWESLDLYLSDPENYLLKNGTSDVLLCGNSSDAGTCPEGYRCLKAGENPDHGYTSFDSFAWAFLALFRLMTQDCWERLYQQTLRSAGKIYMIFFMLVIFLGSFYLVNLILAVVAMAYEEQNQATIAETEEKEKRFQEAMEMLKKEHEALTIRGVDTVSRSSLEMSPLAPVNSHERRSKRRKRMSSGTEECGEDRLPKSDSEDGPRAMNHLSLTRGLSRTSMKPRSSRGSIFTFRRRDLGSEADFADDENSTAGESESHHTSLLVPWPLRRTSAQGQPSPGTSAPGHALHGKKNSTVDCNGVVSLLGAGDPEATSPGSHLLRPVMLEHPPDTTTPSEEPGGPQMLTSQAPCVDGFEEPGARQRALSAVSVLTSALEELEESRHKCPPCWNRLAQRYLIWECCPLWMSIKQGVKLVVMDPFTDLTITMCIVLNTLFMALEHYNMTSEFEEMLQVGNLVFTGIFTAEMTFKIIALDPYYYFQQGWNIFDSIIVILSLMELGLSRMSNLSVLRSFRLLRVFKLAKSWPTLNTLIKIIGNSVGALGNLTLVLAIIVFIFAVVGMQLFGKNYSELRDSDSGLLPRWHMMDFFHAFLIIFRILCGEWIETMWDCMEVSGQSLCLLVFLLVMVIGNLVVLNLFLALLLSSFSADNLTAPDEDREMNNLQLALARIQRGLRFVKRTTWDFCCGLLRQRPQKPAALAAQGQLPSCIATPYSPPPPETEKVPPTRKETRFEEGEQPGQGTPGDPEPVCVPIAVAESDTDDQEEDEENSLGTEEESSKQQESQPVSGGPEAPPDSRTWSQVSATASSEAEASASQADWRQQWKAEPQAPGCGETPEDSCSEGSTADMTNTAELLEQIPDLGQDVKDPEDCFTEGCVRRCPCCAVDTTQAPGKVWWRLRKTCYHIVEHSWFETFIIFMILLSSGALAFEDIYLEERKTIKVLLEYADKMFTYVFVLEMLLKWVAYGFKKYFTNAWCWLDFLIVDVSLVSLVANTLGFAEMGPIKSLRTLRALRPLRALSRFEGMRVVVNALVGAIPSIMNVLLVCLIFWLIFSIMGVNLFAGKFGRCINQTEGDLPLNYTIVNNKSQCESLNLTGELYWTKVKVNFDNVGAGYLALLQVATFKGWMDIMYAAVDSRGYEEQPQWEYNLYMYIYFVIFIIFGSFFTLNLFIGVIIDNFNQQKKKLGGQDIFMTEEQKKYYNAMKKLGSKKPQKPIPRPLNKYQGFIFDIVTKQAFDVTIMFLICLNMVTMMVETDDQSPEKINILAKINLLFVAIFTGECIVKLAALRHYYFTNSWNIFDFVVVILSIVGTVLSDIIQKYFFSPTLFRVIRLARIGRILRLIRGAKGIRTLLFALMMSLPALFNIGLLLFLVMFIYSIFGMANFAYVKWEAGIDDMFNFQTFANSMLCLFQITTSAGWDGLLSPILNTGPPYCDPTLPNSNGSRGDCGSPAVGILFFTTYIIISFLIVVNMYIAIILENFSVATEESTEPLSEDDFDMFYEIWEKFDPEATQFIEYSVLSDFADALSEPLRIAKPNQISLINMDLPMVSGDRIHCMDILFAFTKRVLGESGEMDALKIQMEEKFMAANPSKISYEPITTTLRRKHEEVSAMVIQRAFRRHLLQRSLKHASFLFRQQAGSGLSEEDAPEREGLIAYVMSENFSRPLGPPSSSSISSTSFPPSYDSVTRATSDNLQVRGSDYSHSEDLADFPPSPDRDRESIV
# [3] = molecular target: T1, Sodium channel protein type 5 subunit alpha; assay: Inhibition of human sodium Nav1.5 channel expressed in HEK293 cells assessed as inhibition of veratridine-induced late sodium current elicited at -30 mV from holding potential of -90 mV at 10 uM by patch clamp technique; format: cell-based; conditions: for inhibition at 10 µM: HEK293, human
# Heart = assay: Inhibition of global ischemia-induced diastolic contracture in isolated Langendorff perfused guinea pig model heart at 1 uM after 15 mins; format: functional, Cavia porcellus
# Cardiac atrium [4] = conditions: Rattus norvegicus, Wistar, 1 uM
# Description: as §1
# [5] = molecular target: T1, Sodium channel protein type 5 subunit alpha; assay: Inhibition of sodium Nav1.5 channel assessed as inhibition of late sodium current elicited at -30 mV from holding potential of -110 mV
# [6] = molecular target: T1, Sodium channel protein type 5 subunit alpha; assay: Inhibition of sodium Nav1.5 channel assessed as inhibition of late sodium current elicited at -30 mV from holding potential of -90 mV
# Oryctolagus cuniculus [7] = assay: Reversal of ischemia-induced ST segment elevation in iv dosed anesthetized New Zealand white rabbit; format: functional
# Oryctolagus cuniculus [8] = assay: Reversal of ischemia-induced ST segment elevation in po dosed anesthetized New Zealand white rabbit; format: functional
# Oryctolagus cuniculus [9] = assay: Ratio of ED50 for reversal of ischemia-induced ST segment elevation in po dosed New Zealand white rabbit to ED50 for reversal of ischemia-induced ST segment elevation iv dosed New Zealand white rabbit; format: functional
# Oryctolagus cuniculus [10] = assay: Effect on heart rate in anesthetized New Zealand white rabbit myocardial ischemia model assessed as beats per minute at 0.04 mg/kg; format: functional
# Oryctolagus cuniculus [11] = assay: Effect on heart rate in anesthetized New Zealand white rabbit myocardial ischemia model assessed as beats per minute at 0.16 mg/kg; format: functional
# Oryctolagus cuniculus [12] = assay: Effect on heart rate in anesthetized New Zealand white rabbit myocardial ischemia model assessed as beats per minute at 0.63 mg/kg; format: functional
# Oryctolagus cuniculus [13] = assay: Effect on heart rate in anesthetized New Zealand white rabbit myocardial ischemia model assessed as beats per minute at 2.5 mg/kg; format: functional
# Oryctolagus cuniculus [14] = assay: Effect on heart rate in anesthetized New Zealand white rabbit myocardial ischemia model assessed as beats per minute at 0.01 mg/kg; format: functional
# Oryctolagus cuniculus [15] = assay: Reversal of ischemia-induced ST segment elevation in anesthetized New Zealand white rabbit at 2.5 mg/kg, iv; format: functional, organism-based; set-up: dose 2.5 mg/kg
SMILES,inhibition at 1 µM (Cardiac atrium [1]),inhibition at 10 µM [2],inhibition at 10 µM [3],inhibition (INH) (Heart),also measured
COc1ccccc1SCCCN[C@@H]1COc2ccccc2SC1,3%,–,–,–,–
COc1ccccc1SC[C@H](CN[C@@H]1COc2ccccc2SC1)OC(C)=O,9%,–,–,–,–
COc1ccccc1SC[C@H](CN[C@@H]1COc2ccccc2SC1)C(C)C,90%,31%,34%,31%,–
COc1ccccc1SC[C@@H](C)CN[C@H]1COc2ccccc2SC1,25%,31%,41%,–,–
COc1ccccc1SCC(O)CN[C@H]1COc2ccccc2SC1 (mixture of isomers),26%,16%,21%,–,–
COc1ccccc1SC[C@H](CN[C@@H]1COc2ccccc2SC1)OC(=O)c1ccccc1,3%,–,–,–,–
CC[C@@H](CN[C@@H]1COc2ccccc2SC1)CSc1ccccc1OC,86%,46%,54%,68%,–
COc1ccccc1SC[C@@H](F)CN[C@@H]1COc2ccccc2SC1,32%,11%,19%,–,–
NC1=N[C@H](O)[C@H]2[C@H]3O[C@]4(O)O[C@@H]([C@@H](O)[C@@]2(N1)[C@@H]4O)[C@]3(O)CO [TETRODOTOXIN],–,–,–,–,"inhibition (INH) ([2]; human, hek293, 10 µM): 79%; inhibition (INH) ([3]; human, hek293, 10 µM): 87%; inhibition (Cardiac atrium [4]): 64%"
COc1ccccc1SCC(O)CN[C@@H]1COc2ccccc2SC1 (mixture of isomers),50%,37%,42%,–,–
C=C(CN[C@@H]1COc2ccccc2SC1)CSc1ccccc1OC,26%,36%,37%,–,–
COc1ccc(CCN(C)CCCOc2nsc(-c3ccccc3)n2)cc1OC,45%,60%,60%,39%,–
COc1ccccc1SC[C@@H](C)CN[C@@H]1COc2ccccc2SC1,74%,53%,70%,65%,IC50 [5]: 2.56 µM; IC50 [6]: 5.77 µM; ED50 (Oryctolagus cuniculus [7]): 0.05 mg/kg; ED50 (Oryctolagus cuniculus [8]): 0.13 mg/kg; Ratio ED50 (Oryctolagus cuniculus [9]): 2.6; Activity (Oryctolagus cuniculus [10]): 0.3 bpm; Activity (Oryctolagus cuniculus [11]): -6.4 bpm; Activity (Oryctolagus cuniculus [12]): -3.2 bpm; Activity (Oryctolagus cuniculus [13]): -8.6 bpm; Activity (Oryctolagus cuniculus [14]): -3.2 bpm
CCCO[C@@H](CN[C@@H]1COc2ccccc2SC1)CSc1ccccc1OC,30%,27%,27%,–,–
COc1ccccc1SC[C@H](C)CN[C@H]1COc2ccccc2SC1,26%,30%,44%,–,–
COc1ccccc1SC[C@H](O)CN[C@@H]1COc2ccccc2SC1,7%,26%,30%,–,–
CCC[C@@H](CN[C@@H]1COc2ccccc2SC1)CSc1ccccc1OC,23%,17%,23%,–,–
CCO[C@@H](CN[C@@H]1COc2ccccc2SC1)CSc1ccccc1OC,46%,22%,34%,33%,–
COc1ccccc1SCC(CN[C@@H]1COc2ccccc2SC1)=C(C)C,42%,31%,37%,16%,–
COc1ccccc1OCC(O)CN1CCN(CC(=O)Nc2c(C)cccc2C)CC1 (configuration not stated) [RANOLAZINE],–,11%,19%,–,ED50 (Oryctolagus cuniculus [7]): > 2.5 mg/kg
COc1cc2c(cc1OC)CC(=O)N(CCCN(C)C[C@H]1Cc3cc(OC)c(OC)cc31)CC2 [IVABRADINE],–,–,–,–,ED50 (Oryctolagus cuniculus [7]): 0.59 mg/kg; Activity (Oryctolagus cuniculus [10]): -3.4 bpm; Activity (Oryctolagus cuniculus [11]): -20.7 bpm; Activity (Oryctolagus cuniculus [12]): -69.4 bpm; Activity (Oryctolagus cuniculus [13]): -112.6 bpm; Activity (Oryctolagus cuniculus [15]): Active
COc1ccccc1SC[C@@H](O)CN[C@@H]1COc2ccccc2SC1,54%,69%,75%,14%,–
COc1ccccc1SC[C@H](C)CN[C@@H]1COc2ccccc2SC1,38%,22%,34%,–,–
COc1ccccc1SC[C@H](CN[C@@H]1COc2ccccc2SC1)OC,45%,12%,27%,64%,–
